Assay results taken from ChEMBL document CHEMBL3779847, “Altered activity profile of a tertiary silanol analog of multi-targeting nuclear receptor modulator T0901317” (Bioorg Med Chem Lett, 2016).
pEC50, pIC50: −log10 of the molar value.

How the values were obtained:
[1] = Octanol-water partition coefficient, log P of the compound by HPLC method; type: physicochemical
[2] = target: T1, Nuclear receptor ROR-alpha (Homo sapiens, UniProt P35398); test: Inverse agonist activity at human RORalpha transfected in HEK293 cells after 24 hrs by beta galactosidase luciferase reporter gene assay; type: cell-based; details: for IC50: hek293
T1 sequence (P35398 whole entry): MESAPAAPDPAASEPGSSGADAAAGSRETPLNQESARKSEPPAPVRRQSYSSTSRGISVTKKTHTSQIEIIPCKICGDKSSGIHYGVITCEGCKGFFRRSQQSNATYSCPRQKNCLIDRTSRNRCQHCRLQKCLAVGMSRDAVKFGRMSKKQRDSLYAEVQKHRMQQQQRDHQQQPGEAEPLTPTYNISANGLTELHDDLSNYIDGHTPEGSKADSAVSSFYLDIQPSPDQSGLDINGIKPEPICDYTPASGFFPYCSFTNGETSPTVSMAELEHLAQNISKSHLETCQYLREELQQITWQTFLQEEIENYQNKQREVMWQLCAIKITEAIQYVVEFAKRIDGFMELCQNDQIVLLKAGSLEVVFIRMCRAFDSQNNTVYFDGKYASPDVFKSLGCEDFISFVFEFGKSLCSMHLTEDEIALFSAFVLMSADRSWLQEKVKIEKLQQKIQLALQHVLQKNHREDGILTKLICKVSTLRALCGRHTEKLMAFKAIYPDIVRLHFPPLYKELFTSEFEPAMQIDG

[3] = target: T2, Nuclear receptor ROR-beta (Homo sapiens, UniProt Q92753); test: Inverse agonist activity at human RORbeta transfected in HEK293 cells after 24 hrs by beta galactosidase luciferase reporter gene assay; type: cell-based; details: for IC50: hek293
T2 sequence (Q92753 whole entry): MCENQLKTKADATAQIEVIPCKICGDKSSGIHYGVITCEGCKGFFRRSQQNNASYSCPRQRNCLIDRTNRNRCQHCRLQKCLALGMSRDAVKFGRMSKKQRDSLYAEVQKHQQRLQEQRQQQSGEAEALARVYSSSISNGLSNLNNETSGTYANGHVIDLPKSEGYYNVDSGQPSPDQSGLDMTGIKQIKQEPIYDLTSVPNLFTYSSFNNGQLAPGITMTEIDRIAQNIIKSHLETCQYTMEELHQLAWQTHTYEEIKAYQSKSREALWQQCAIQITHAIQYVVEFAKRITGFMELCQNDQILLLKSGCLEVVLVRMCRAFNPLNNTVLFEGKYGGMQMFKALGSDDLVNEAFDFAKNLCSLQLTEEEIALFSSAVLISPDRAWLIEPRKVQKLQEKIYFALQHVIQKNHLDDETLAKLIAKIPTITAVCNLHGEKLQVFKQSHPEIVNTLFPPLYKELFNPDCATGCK

PXR (NR1I2) = target: T3, PXR (NR1I2) (Homo sapiens, UniProt O75469); test: Agonist activity at human PXR transfected in HEK293 cells after 24 hrs by luciferase reporter gene assay relative to T0901317; type: cell-based; details: HEK293 cells transfected with human PXR, read-out: Efficacy
T3 sequence (O75469 whole entry): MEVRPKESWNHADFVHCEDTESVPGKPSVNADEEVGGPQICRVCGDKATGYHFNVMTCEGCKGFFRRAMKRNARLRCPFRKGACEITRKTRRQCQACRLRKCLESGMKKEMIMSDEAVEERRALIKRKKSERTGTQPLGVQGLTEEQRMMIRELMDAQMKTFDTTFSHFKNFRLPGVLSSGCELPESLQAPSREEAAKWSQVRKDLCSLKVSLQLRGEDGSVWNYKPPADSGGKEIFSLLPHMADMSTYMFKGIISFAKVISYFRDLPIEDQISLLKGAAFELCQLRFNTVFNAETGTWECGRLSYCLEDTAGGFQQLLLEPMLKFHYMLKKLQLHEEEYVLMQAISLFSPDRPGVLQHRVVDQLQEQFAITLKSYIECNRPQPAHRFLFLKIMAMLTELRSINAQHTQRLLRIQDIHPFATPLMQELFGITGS

[4] = target: T4, Oxysterols receptor LXR-alpha (Homo sapiens, UniProt Q13133); test: Agonist activity at human LXRalpha transfected in HEK293 cells after 24 hrs by luciferase reporter gene assay; type: cell-based
T4 sequence (Q13133 whole entry): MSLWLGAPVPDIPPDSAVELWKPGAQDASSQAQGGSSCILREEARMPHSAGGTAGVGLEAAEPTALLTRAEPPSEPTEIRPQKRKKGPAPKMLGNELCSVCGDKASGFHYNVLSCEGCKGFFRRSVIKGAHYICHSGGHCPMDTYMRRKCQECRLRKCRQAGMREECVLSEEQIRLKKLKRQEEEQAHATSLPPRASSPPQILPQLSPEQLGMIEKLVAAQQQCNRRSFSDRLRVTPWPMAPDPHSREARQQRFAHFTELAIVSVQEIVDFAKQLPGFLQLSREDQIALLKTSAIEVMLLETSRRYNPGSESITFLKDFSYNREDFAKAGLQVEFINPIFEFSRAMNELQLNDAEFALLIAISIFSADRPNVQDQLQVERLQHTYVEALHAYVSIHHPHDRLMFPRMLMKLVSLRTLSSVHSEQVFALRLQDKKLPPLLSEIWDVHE

[5] = target: T5, Oxysterols receptor LXR-beta (Homo sapiens, UniProt P55055); test: Agonist activity at human LXRbeta transfected in HEK293 cells after 24 hrs by luciferase reporter gene assay; type: cell-based
T5 sequence (P55055 whole entry): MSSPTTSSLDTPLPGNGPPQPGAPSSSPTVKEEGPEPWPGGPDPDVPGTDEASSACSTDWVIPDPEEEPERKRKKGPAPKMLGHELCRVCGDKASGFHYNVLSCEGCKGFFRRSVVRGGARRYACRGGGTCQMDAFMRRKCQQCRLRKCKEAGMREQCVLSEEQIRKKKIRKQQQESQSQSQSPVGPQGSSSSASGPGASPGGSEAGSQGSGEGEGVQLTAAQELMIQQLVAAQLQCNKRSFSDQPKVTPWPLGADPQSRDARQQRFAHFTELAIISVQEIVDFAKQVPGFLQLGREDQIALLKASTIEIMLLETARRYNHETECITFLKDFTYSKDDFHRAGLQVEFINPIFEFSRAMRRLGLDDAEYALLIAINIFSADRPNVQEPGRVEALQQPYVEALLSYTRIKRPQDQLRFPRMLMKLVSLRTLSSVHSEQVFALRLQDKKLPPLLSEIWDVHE

[6] = target: T6, Bile acid receptor (Homo sapiens) (UniProt Q96RI1); test: Partial agonist activity at human FXR transfected in HEK293 cells after 24 hrs by luciferase reporter gene assay relative to T0901317; type: cell-based
T6 sequence (whole entry): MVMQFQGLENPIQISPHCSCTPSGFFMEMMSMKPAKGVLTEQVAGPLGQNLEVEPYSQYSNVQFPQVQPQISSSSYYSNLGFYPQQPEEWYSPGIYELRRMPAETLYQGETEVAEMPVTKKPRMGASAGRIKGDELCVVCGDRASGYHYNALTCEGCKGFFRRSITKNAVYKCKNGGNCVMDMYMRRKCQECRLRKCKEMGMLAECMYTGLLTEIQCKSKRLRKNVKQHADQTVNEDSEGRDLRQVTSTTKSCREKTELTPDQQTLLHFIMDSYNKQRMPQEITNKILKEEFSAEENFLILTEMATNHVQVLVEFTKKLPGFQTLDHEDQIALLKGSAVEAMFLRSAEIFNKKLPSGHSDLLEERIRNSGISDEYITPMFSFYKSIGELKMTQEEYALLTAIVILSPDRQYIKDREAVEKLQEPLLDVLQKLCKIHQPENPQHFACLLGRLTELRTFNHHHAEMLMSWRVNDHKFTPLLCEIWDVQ

Bile acid receptor [7] = target: T7, Bile acid receptor (Homo sapiens, UniProt Q96RI1); test: Partial agonist activity at human FXR transfected in HEK293 cells after 24 hrs by luciferase reporter gene assay; type: cell-based
T7 sequence (Q96RI1 whole entry): T6 sequence (whole entry)

[8] = target: T8, Nuclear receptor subfamily 1 group I member 2 (Homo sapiens, UniProt O75469); test: Agonist activity at human PXR transfected in HEK293 cells after 24 hrs by luciferase reporter gene assay; type: cell-based
T8 sequence (O75469 whole entry): T3 sequence (O75469 whole entry)

[9] = target: T9, Nuclear receptor ROR-gamma (Homo sapiens, UniProt P51449); test: Inverse agonist activity at human RORgamma transfected in HEK293 cells after 24 hrs by beta galactosidase luciferase reporter gene assay; type: cell-based
T9 sequence (P51449 whole entry): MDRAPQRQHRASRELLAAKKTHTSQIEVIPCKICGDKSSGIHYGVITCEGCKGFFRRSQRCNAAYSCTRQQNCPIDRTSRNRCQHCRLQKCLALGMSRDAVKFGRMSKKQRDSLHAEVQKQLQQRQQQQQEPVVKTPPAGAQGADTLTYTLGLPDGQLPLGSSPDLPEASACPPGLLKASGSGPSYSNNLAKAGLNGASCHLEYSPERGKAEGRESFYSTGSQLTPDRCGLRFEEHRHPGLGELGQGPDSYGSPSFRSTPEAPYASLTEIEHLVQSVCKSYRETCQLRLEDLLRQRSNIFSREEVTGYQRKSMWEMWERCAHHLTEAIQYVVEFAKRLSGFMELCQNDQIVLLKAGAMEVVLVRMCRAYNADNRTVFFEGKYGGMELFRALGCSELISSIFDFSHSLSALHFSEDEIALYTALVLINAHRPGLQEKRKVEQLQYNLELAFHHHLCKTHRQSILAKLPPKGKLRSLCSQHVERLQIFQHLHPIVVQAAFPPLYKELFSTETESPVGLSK

Bile acid receptor [10] = target: T7, Bile acid receptor; test: Agonist activity at human FXR transfected in HEK293 cells after 24 hrs by luciferase reporter gene assay; type: cell-based

Row | Structure (SMILES) | logP [1] | IC50 [2] | IC50 [3] | Emax at 24 h (PXR (NR1I2)) [%] | EC50 [4] | EC50 [5] | Efficacy [6] [%] | pIC50 ([2]; read-out: IC50) | pIC50 ([3]; read-out: IC50) | pEC50 (Bile acid receptor [7]) | pEC50 ([8]; read-out: EC50) | pIC50 ([9]; read-out: IC50) | EC50 (Bile acid receptor [10]) | EC50 ([8]; hek293) | IC50 ([9]; hek293)
1 | O=S(=O)(c1ccccc1)N(CC(F)(F)F)c1ccc(C(O)(C(F)(F)F)C(F)(F)F)cc1 [T091317] | 5.38 | Not Active | Not Active |  |  |  |  |  |  |  |  |  |  |  | 
2 | CO[C@H]1/C=C/O[C@@]2(C)Oc3c(C)c(O)c4c(O)c(c(/C=N/N5CCN(C)CC5)c(O)c4c3C2=O)NC(=O)/C(C)=C\C=C\[C@H](C)[C@H](O)[C@@H](C)[C@@H](O)[C@@H](C)[C@H](OC(C)=O)[C@@H]1C [RIFAMPIN] |  |  |  | 75 |  |  |  |  |  |  |  |  |  |  | 
3 | C[Si](C)(O)c1ccc(N(CC(F)(F)F)S(=O)(=O)c2ccccc2)cc1 | 4.23 |  |  | 61 | Not Active | Not Active | 23 | 4.28 | 4.22 | 4.96 | 6.06 | 4.37 |  |  | 
4 | CC(C)(O)c1ccc(N(CC(F)(F)F)S(=O)(=O)c2ccccc2)cc1 | 3.7 | Not Active | Not Active |  | Not Active | Not Active |  |  |  |  |  |  | Not Active | Not Active | Not Active
